23 compounds from patent publication EP2776398B1, “SUBSTITUTED PYRAZOLYL-BASED UREA DERIVATIVES AS VANILLOID RECEPTOR LIGANDS” (Medifron DBT Inc., priority 2011, dated 2013) can be followed below.

A word on the inhibition: it is how much of the control response was suppressed. By Ki is commonly meant a dissociation constant, usually derived from enzyme kinetics or from competition with a known ligand.

The structures appear in SMILES notation.

The first assay deals with T1, vanilloid receptor 1 (VR1/TRPV1 receptor) (Homo sapiens, UniProt Q8NER1).
T1 construct: expressed in transfected cells; host or cells: CHO K1 cells (ECACC), stably transfected
T1 sequence (Q8NER1 whole entry): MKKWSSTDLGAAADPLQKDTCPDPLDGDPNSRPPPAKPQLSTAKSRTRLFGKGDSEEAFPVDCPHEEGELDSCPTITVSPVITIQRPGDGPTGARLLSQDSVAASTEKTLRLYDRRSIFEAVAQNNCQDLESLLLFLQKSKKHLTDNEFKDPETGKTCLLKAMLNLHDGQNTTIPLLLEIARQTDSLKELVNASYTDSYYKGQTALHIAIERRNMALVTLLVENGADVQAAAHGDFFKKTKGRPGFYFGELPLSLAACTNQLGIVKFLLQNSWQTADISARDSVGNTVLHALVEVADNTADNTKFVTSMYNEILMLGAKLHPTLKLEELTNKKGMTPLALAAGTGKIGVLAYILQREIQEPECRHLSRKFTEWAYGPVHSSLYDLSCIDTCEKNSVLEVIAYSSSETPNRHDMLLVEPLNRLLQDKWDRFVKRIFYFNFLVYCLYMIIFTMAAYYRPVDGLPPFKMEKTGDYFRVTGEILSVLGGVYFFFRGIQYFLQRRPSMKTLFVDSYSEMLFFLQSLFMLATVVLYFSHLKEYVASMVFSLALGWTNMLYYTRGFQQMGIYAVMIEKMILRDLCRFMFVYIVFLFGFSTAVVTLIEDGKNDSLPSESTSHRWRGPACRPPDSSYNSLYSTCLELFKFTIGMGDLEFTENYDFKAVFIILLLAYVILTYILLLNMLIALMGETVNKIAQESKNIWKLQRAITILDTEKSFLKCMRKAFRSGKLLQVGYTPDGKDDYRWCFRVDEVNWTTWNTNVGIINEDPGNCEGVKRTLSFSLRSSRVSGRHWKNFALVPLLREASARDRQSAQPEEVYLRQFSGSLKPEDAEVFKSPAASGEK
The experiment in a line: Functional testing on vanilloid receptor 1: FLIPR Ca2+ influx assay against capsaicin (Cap) in transfected CHO K1 cells (pharmacological method II). As to Ki: 100 nM capsaicin. It counts as cell-based. Details: key to (f) Ki (human being) [nM] Cap: agonist classification: AG = agonist. As to conditions: @ 5µM; human VR1 in CHO K1 cells; capsaicin; relative to maximum inhibition with 10 µM capsazepine; read-out: inhibition (as a percentage), printed in column (f) Ki (human being) [nM] Cap.
From the text: […]
With `O=C(NCc1cc(C(F)(F)F)nn1-c1ccc(F)c(F)c1)Nc1ccc(COCCO)c(F)c1` [A132, 1-[[2-(3,4-Difluoro-phenyl)-5-(trifluoromethyl)-2H-pyrazol-3-yl]-methyl]-3-[3-fluoro-4-(2-hydroxy-ethoxy-methyl)-phenyl]-urea], the inhibition at 5 µM came to 48%.

Staying with this assay, now noted: human VR1 in CHO K1 cells; AG printed instead of a Ki.
In the case of `CC(C(=O)NCc1cc(C(C)(C)C)nn1-c1ccc(F)c(Cl)c1)c1ccc(CO)c(F)c1` (centres unmarked) [A41, N-[[5-tert-Butyl-2-(3-chloro-4-fluoro-phenyl)-2H-pyrazol-3-yl]-methyl]-2-[3-fluoro-4-(hydroxymethyl)-phenyl]-propionamide], the “(f) Ki (human being) [nM] Cap: agonist classification” value is “AG”.
As for `COc1cc(NC(=O)NCc2cc(C(F)(F)F)nn2-c2cccc(Cl)c2)ccc1O` [A15, 1-[[2-(3-Chlorophenyl)-5-(trifluoromethyl)-2H-pyrazol-3-yl]-methyl]-3-(4-hydroxy-3-methoxy-phenyl)-urea], the “(f) Ki (human being) [nM] Cap: agonist classification” value is “AG”.
The same measure, in the same setting: with `CC(C(=O)NCc1cc(C(C)(C)C)nn1-c1ccc(F)c(F)c1)c1ccc(CO)c(F)c1` (centres unmarked) [A39, N-[[5-tert-Butyl-2-(3,4-difluoro-phenyl)-2H-pyrazol-3-yl]-methyl]-2-[3-fluoro-4-(hydroxymethyl)-phenyl]-propionamide] the entry was “AG”; with `CC(O)c1ccc(C(C)C(=O)NCc2cc(C(C)(C)C)nn2-c2cccc(Cl)c2)cc1F` (centres unmarked) [A98, N-[[5-tert-Butyl-2-(3-chlorophenyl)-2H-pyrazol-3-yl]-methyl]-2-[3-fluoro-4-(1-hydroxy-ethyl)-phenyl]-propionamide], “AG”.

Staying with this assay, now noted: read-out: (f) Ki (human being) [nM] Cap.
Turning to `CC(C(=O)NCc1cc(C(F)(F)F)nn1-c1cccc(F)c1)c1ccc(C2(O)CC2)c(F)c1` (centres unmarked) [A102, 2-[3-Fluoro-4-(1-hydroxy-cyclopropyl)-phenyl]-N-[[2-(3-fluorophenyl)-5-(trifluoromethyl)-2H-pyrazol-3-yl]-methyl]-propionamide], the Ki was determined as 15 nM.
With `COCc1cccc(-n2nc(C(F)(F)F)cc2CNC(=O)Nc2ccc(CO)c(F)c2)c1` [A84, 1-[3-Fluoro-4-(hydroxymethyl)-phenyl]-3-[[2-[3-(methoxymethyl)-phenyl]-5-(trifluoromethyl)-2H-pyrazol-3-yl]-methyl]-urea], the Ki stood at 53 nM.
As for `CC(C(=O)NCc1cc(C(F)(F)F)nn1-c1cccc(Cl)c1)c1ccc(CCO)c(F)c1` (centres unmarked) [A138, N-[[2-(3-Chlorophenyl)-5-(trifluoromethyl)-2H-pyrazol-3-yl]-methyl]-2-[3-fluoro-4-(2-hydroxy-ethyl)-phenyl]-propionamide], the Ki was 8 nM.
The same measure, in the same setting: as for `CC(C)c1cccc(-n2nc(C(F)(F)F)cc2CNC(=O)C(C)c2ccc(CO)c(F)c2)c1` (centres unmarked) [A44, 2-[3-Fluoro-4-(hydroxymethyl)-phenyl]-N-[[2-(3-isopropyl-phenyl)-5-(trifluoromethyl)-2H-pyrazol-3-yl]-methyl]-propionamide], the figure is 0.2 nM; as for `CC(C)(C)c1cc(CNC(=O)Nc2ccc(OCCO)c(F)c2)n(-c2cccc(Cl)c2)n1` [A19, 1-[[5-tert-Butyl-2-(3-chlorophenyl)-2H-pyrazol-3-yl]-methyl]-3-[3-fluoro-4-(2-hydroxy-ethoxy)-phenyl]-urea], 13 nM; as for `O=C(NCc1cc(C(F)(F)F)nn1-c1ccc(F)c(Cl)c1)Nc1ccc(OCCO)c(F)c1` [A22, 1-[[2-(3-Chloro-4-fluoro-phenyl)-5-(trifluoromethyl)-2H-pyrazol-3-yl]-methyl]-3-[3-fluoro-4-(2-hydroxy-ethoxy)-phenyl]-urea], 40 nM.
With `O=C(NCc1cc(C(F)(F)F)nn1-c1ccccc1)Nc1ccc(CO)c(F)c1` [A58, 1-[3-Fluoro-4-(hydroxymethyl)-phenyl]-3-[[2-phenyl-5-(trifluoromethyl)-2H-pyrazol-3-yl]-methyl]-urea], the Ki turned out to be 6 nM.
Take `Cc1cccc(-n2nc(C(F)(F)F)cc2CNC(=O)Nc2ccc(CO)c(F)c2)c1` [A70, 1-[3-Fluoro-4-(hydroxymethyl)-phenyl]-3-[[2-(m-tolyl)-5-(trifluoromethyl)-2H-pyrazol-3-yl]-methyl]-urea]: the Ki was 9 nM.
Still for that read-out and setting: as for `CC(C(=O)NCc1cc(C(F)(F)F)nn1-c1cccc(Cl)c1)c1cc(F)c(O)c(F)c1` (centres unmarked) [A10, N-[[2-(3-Chlorophenyl)-5-(trifluoromethyl)-2H-pyrazol-3-yl]-methyl]-2-(3,5-difluoro-4-hydroxy-phenyl)-propionamide], the figure is 1 nM; as for `Cc1cc(F)cc(-n2nc(C(F)(F)F)cc2CNC(=O)Nc2ccc(CO)c(F)c2)c1` [A77, 1-[3-Fluoro-4-(hydroxymethyl)-phenyl]-3-[[2-(3-fluoro-5-methyl-phenyl)-5-(trifluoromethyl)-2H-pyrazol-3-yl]-methyl]-urea], 19 nM; as for `O=C(NCc1cc(C(F)(F)F)nn1-c1cccc(Cl)c1)Nc1ccc(OCCO)c(F)c1` [A20, 1-[[2-(3-Chlorophenyl)-5-(trifluoromethyl)-2H-pyrazol-3-yl]-methyl]-3-[3-fluoro-4-(2-hydroxy-ethoxy)-phenyl]-urea], 37 nM.
Take `COCCOCc1ccc(C(C)C(=O)NCc2cc(C(F)(F)F)nn2-c2ccc(F)c(Cl)c2)cc1F` (centres unmarked) [A112, N-[[2-(3-Chloro-4-fluoro-phenyl)-5-(trifluoromethyl)-2H-pyrazol-3-yl]-methyl]-2-[3-fluoro-4-(2-methoxy-ethoxy-methyl)-phenyl]-propionamide]: the Ki turned out to be 79 nM.
With `COc1c(F)cc(CC(=O)NCc2cc(C(C)(C)C)nn2-c2cccc(Cl)c2)cc1F` [A1, N-[[5-tert-Butyl-2-(3-chlorophenyl)-2H-pyrazol-3-yl]-methyl]-2-(3,5-difluoro-4-methoxy-phenyl)-acetamide], the Ki stood at 12 nM.
For the compound `O=C(NCc1cc(C2CC2)nn1-c1cccc(Cl)c1)Nc1ccc(CO)c(F)c1` [A53, 1-[[2-(3-Chlorophenyl)-5-cyclopropyl-2H-pyrazol-3-yl]-methyl]-3-[3-fluoro-4-(hydroxymethyl)-phenyl]-urea], the Ki is 18 nM.
For the compound `CC(C(=O)NCc1cc(C(F)(F)F)nn1-c1cccc(Cl)c1)c1ccc(COCCO)c(F)c1` (centres unmarked) [A118, N-[[2-(3-Chlorophenyl)-5-(trifluoromethyl)-2H-pyrazol-3-yl]-methyl]-2-[3-fluoro-4-(2-hydroxy-ethoxy-methyl)-phenyl]-propionamide], the Ki is 27 nM.
Still for that read-out and setting: with `CC(C(=O)NCc1cc(C(F)(F)F)nn1-c1ccc(F)c(Cl)c1)c1ccc(COCCO)c(F)c1` (centres unmarked) [A121, N-[[2-(3-Chloro-4-fluoro-phenyl)-5-(trifluoromethyl)-2H-pyrazol-3-yl]-methyl]-2-[3-fluoro-4-(2-hydroxy-ethoxy-methyl)-phenyl]-propionamide] the figure was 20 nM; with `COc1cc(C(C)C(=O)NCc2cc(C(F)(F)F)nn2-c2cccc(Cl)c2)ccc1CO` (centres unmarked) [A50, N-[[2-(3-Chlorophenyl)-5-(trifluoromethyl)-2H-pyrazol-3-yl]-methyl]-2-[4-(hydroxymethyl)-3-methoxy-phenyl]-propionamide], 1 nM.
On the same count and under the same terms, with `COc1cc(C)cc(-n2nc(C(F)(F)F)cc2CNC(=O)Nc2ccc(CO)c(F)c2)c1` [A92, 1-[3-Fluoro-4-(hydroxymethyl)-phenyl]-3-[[2-(3-methoxy-5-methyl-phenyl)-5-(trifluoromethyl)-2H-pyrazol-3-yl]-methyl]-urea] the figure was 19 nM.
